Results from patent publication US10576092B1, “Doxorubicin derivatives and uses thereof” (S.S.Manufacturing Co. Ltd, priority 2019, dated 2020).

How the values were obtained:
MCF-7 cells [1] = assay: MTT (WST-1) assay for cytotoxicity effect of compound A on tumor cells; settings: 24 hours treatment
Experimental: The human breast cancer cell line, MCF-7, was obtained from American Type Cell Collection (ATCC) (Rockville, Mo., U.S.A.). The cells were cultured to 70-80% confluence in Dulbecco's modified Eagle medium (DMEM) (Gibco, Grand Island, N.Y., U.S.A.) with 10% fetal bovine serum (FBS) (Gibco) at 37° C. and 5% CO2. MCF-7 cells were plated overnight in a 96-well plate (4,000 cells per well). […] Next, 10 μl/well of WST-1/ECS solution from the Quick Cell Proliferation Colorimetric Assay Kit (BioVision, Inc., Milptas, Calif., U.S.A.) was added, and the solution was incubated for 2 hours at 37° C. and 5% CO2. […] The half maximal inhibitory concentrations (IC50s) were calculated from linear regression from the absorbance optical density (OD) of each triplicate concentration.

MCF-7 cells [2] = assay: Induction of MCF-7 cell apoptosis; assay type: cell-based, human
MCF-7 cells [3] = assay: Fluorescent microscopy of subcellular distribution; assay type: cell-based, human; settings: 120 μg/ml, observed at 60, 120 and 360 minutes
Experimental: Low numbers of MCF-7 cells were seeded into 8-well plate (3,000 cells/well) overnight.

MCF-7 cells [4] = assay: Cell cycle analysis; assay type: cell-based, human
MCF-7 cells [5] = assay: Cytosolic oxidative stress; assay type: cell-based, human

Experimental for Lipid solubility in oil: The suspended were vortexed and centrifuged at 3000 RPM, 10 mins periodically. Oil solvent volume was stepwise increased till completely soluble was observed and the soluble concentration were determined (Table1). The solutions were left at 24° C. overnight and were centrifuged at 5000 RPM for 20 mins. […] The suspensions were vigorously vortex and left at room temperature.

Row | Compound | IC60 (MCF-7 cells [1]) [µg/mL] | induction of MCF-7 cell apoptosis (MCF-7 cells [2]) | entry into the nucleus (subcellular distribution) (MCF-7 cells [3]) | interference with the cell cycle (MCF-7 cells [4]) | cytosolic oxidative stress (MCF-7 cells [5]) | Solubility in Oil (40° C.) (Lipid solubility in oil; Canola Oil) | Solubility in Oil (40° C.) (Lipid solubility in oil; Ethiodized Oil) | Solubility in Oil (40° C.) (Lipid solubility in oil; Olive Oil)
1 | ((3bS)-7-hydroxy-11a-methyl-1H,2H,3H,3aH,3bH,4H,5H,9bH,10H,11H,11aH-cyclopenta[a]phenanthren-1-yl N-[(2S,3S,6R)-3-hydroxy-2-methyl-6-{[(1S,3S)-3,5,12-trihydroxy-3-(2-hydroxyacetyl)-10-methoxy-6,11-dioxo-1,2,3,4,6,11-hexahydrotetracen-1-yl]oxy}oxan-4-yl]carbamate) [Compound A] | ~120 | rapidly induced MCF-7 cell apoptosis | without entering the nucleus | did not interfere with the cell cycle | increased cytosolic oxidative stress |  |  | 
2 | COc1cccc2c1C(=O)c1c(O)c3c(c(O)c1C2=O)C[C@@](O)(C(=O)CO)C[C@@H]3O[C@H]1C[C@H](N)[C@H](O)[C@H](C)O1 [Doxorubicin] |  |  |  |  |  | less than 0.0001 mg/100 ml | less than 0.0001 mg/100 ml | less than 0.0001 mg/100 ml
